Reference: patent publication US8961930B2, “Isatin derivatives for use as in vivo imaging agents” (Imperial Innovations Limited, priority 2008, dated 2015)

Key:
caspase 3 = target: T1, caspase 3 (Homo sapiens, UniProt P42574); assay: Fluorimetric in vitro caspase inhibition assay (7-AMC), caspase 3; type: biochemical; parameters: purchased Biomol International, UK; details: for EC50: recombinant human caspase 3, 10 μM Ac-DEVD-AMC; for increase in potency as compared to known benzyl derivative 15: caspase 3, versus compound 15
T1 sequence (P42574 29-175 limits assumed): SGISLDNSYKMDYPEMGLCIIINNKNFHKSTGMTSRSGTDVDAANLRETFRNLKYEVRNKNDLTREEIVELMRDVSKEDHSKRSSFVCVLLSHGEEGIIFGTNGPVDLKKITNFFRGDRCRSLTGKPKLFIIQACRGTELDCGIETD
T1 sequence (P42574 176-277 limits assumed): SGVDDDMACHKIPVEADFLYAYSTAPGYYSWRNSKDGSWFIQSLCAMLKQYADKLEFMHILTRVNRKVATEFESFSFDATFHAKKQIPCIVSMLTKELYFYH
Experimental: Recombinant human caspases-1, -3, -6, -7, and -8 and their peptide-specific substrates were purchased from Biomol International, UK Inhibition of the recombinant caspases by non-radioactive isatins was assessed using a fluorometric assay that measures the accumulation of a fluorogenic product, 7-amino-4-methylcoumarin (7-AMC). All assays were performed in 96-well plates at a volume of 200 μl per well. The assays were performed at 37° C. in an appropriate reaction buffer as described below for each caspase. For caspase 1, the buffer comprised of 0.1% CHAPS, 100 mM NaCl, 5 mM 2-mercaptoethanol, 100 mM HEPES (pH 7.4), 2 mM EDTA, 10% sucrose, and 10 μM of the peptide substrate Ac-YVAD-AMC. For caspase 3: 20 mM HEPES (pH 7.4), 10% sucrose, 100 mM NaCl, 0.1% CHAPS, 2 m, mM EDTA, and 10 μM Ac-DEVD-AMC. For caspase 6: 20 mM HEPES (pH 7.4), 10% sucrose, 100 mM NaCl, 0.1% CHAPS, 2 mM EDTA, and 10 μM Ac-VEID-AMC. For caspase 7: 20 mM HEPES (pH 7.4), 10% sucrose, 5 mM 2-mercaptoethanol, 100 mM NaCl, 0.1% CHAPS, 2 mM EDTA, 10 μM Ac-DEVD-AMC. For caspase 8: 20 mM HEPES (pH 7.4), 10% sucrose, 100 mM NaCl, 0.1% CHAPS, 2 mM EDTA, and 10 μM Ac-IETD-AMC. The Buffers contained non-radioactive isatins in DMSO at a final concentration of 500, 50, 5 μM; 500, 50, 5 nM; 500, 50, 5 pM; the final concentration of DMSO in all wells was 5% of the total volume. Recombinant caspases were used at 0.5 units per assay (˜500 pmol substrate converted per h). All reagents except the peptide substrate were pre-incubated for 10 min. The peptide substrate (final concentration 10 μM) was then added and the plate was incubated for a further 30 min; 30 min was selected after initial linearity study where reaction was assessed after 10, 30, 60 or 90 min. The 30 min time point was selected. Respective control wells contained all reaction components without enzyme. The amount of 7-AMC produced was measured on a fluorescence microplate reader (Victor2; Perkin-Elmer Life sciences) at excitation and emission wavelengths of 355 nm and 460 nm, respectively. The concentration of isatin that inhibits the caspase activity by 50% (EC50) was estimated by non-linear regression analysis using GraphPad Prism (Version 4.0 for Windows, GraphPad Software, San Diego Calif. USA). All the isatins were analyzed in duplicate; the assays were repeated once.
The data are the average for two runs, each of which was duplicated, at nine concentrations ranging from 5 pM to 500 μM; the drug concentration required to inhibit each enzyme by 50% (EC50) was obtained from nonlinear regression analysis of the inhibition profiles.

[1] = In vitro mouse liver S9 metabolism studies; type: in vitro ADME; details: 60 min incubation, 37° C., HPLC
Experimental: Liver S9 metabolism studies were performed as described in Aboagye et al^19. Mouse livers were rapidly excised and kept at 4° C. throughout the experiment. Tissues were weighed and homogenized in an equivalent volume of 50 mM Tris-150 mM KCl-HCl buffer (pH 7.4) using an Ultra-Thurrax homogenizer (IKA, Staufen, Germany). To obtain the S9 fraction, the homogenate was centrifuged (10,000×g) for 30 min to remove nuclei, mitochondria and cell debris. Protein concentration of the S9 fraction was determined by a commercial BCA protein assay kit (Perbio Science, Cheshire, UK). S9 fractions were stored at −80° C. for up to 6 weeks. […]
Immediately prior to extraction the samples were thawed and placed on ice. For extraction, ice cold acetonitrile (1.5 mL) was added to plasma (0.2 mL); S9 incubation samples (3 mL) containing acetonitrile were also analysed. […] The samples (1 mL) were then analyzed by radio-HPLC on an Agilent 1100 series HPLC system (Agilent Technologies, Stockport, UK) equipped with a γ-RAM Model 3 gamma-detector and the Laura software (IN/US Systems inc., Florida, USA).
The stationary phase comprised of a Waters μBondapak C18 reverse-phase column (300×7.8 mm). For analysis of [^125I]14, plasma and liver samples were processed as above and analyzed by using a mobile phase comprising of water (0.1% TFA)/propan-1-ol (0.1% TFA) (35:65) running in isocratic mode at a flowrate of 2 mL/min. […]

| Compound | EC50 (caspase 3) | further results |
| --- | --- | --- |
| O=C1C(=O)N(Cc2ccc(F)cc2)c2ccc(S(=O)(=O)N3CCC[C@H]3COc3cccc(F)c3)cc21 [Compound 1, (S)-1-(4-Fluorobenzyl)-5-(2-(3-fluorophenoxymethyl)-pyrrolidine-1-sulfonyl)isatin] | 17 nM | increase of affinity for caspase 3 as compared with compound 14 (caspase 3; versus known compound 14): two- to three-fold |
| O=C1C(=O)N(Cc2ccccc2)c2ccc(S(=O)(=O)N3CCC[C@H]3COc3ccccc3)cc21 [Compound 13, (S)-1-benzyl-5-(2-phenoxymethyl-pyrrolidine-1-sulfonyl)isatin, reference compound] | 41.8 nM | – |
| O=C1C(=O)N(Cc2ccc(F)cc2)c2ccc(S(=O)(=O)N3CCC[C@H]3COc3ccc(F)cc3F)cc21 [Compound 2, (S)-1-(4-Fluorobenzyl)-5-(2-(2,4-difluorophenoxymethyl)-pyrrolidine-1-sulfonyl)isatin] | 12.4 nM | – |
| O=C1C(=O)N(Cc2cn(CCF)nn2)c2ccc(S(=O)(=O)N3CCC[C@H]3COc3ccccc3)cc21 [Compound 10, (S)-1-((1-(2-Fluoroethyl)-1H-[1,2,3]-triazol-4-yl)methyl)-5-(2-phenoxymethyl-pyrrolidine-1-sulfonyl)isatin] | 16.7 nM | increase in potency as compared to known benzyl derivative 15 (caspase 3): 4 fold |
| O=C1C(=O)N(Cc2ccc(F)cc2)c2ccc(S(=O)(=O)N3CCC[C@H]3COc3ccc(F)cc3)cc21 [Compound 22, (S)-1-(4-Fluorobenzyl)-5-(2-(4-fluorophenoxymethyl)-pyrrolidine-1-sulfonyl)isatin] | 26.1 nM | – |
| O=C1C(=O)N(Cc2ccc(I)cc2)c2ccc(S(=O)(=O)N3CCC[C@H]3COc3ccccc3)cc21 [Compound 14, (S)-1-(4-iodobenzyl)-5-(2-phenoxymethyl-pyrrolidine-1-sulfonyl)isatin, reference compound] | – | degradation in mouse liver S9 fraction [1]: near complete degradation |
| O=C1C(=O)N(Cc2ccc(F)cc2)c2ccc(S(=O)(=O)N3CCC[C@H]3COc3ccccc3)cc21 [Compound 15, (S)-1-(4-fluorobenzyl)-5-(2-phenoxymethyl-pyrrolidine-1-sulfonyl)isatin, reference compound] | 50.5 nM | degradation in mouse liver S9 fraction [1]: near complete degradation |
| C#CCN1C(=O)C(=O)c2cc(S(=O)(=O)N3CCC[C@H]3COc3ccc(F)cc3F)ccc21 [Compound 25, (S)-1-(2-Propynyl)-5-(2-(2,4-difluorophenoxymethyl)-pyrrolidine-1-sulfonyl)isatin] | 50.1 nM | – |

Further lines, with some results ahead:

| EC50 (caspase 3) | Compound | further results |
| --- | --- | --- |
| 0.5 nM | O=C1C(=O)N(Cc2cn(CCF)nn2)c2ccc(S(=O)(=O)N3CCC[C@H]3COc3ccc(F)cc3F)cc21 [Compound 11, (S)-1-((1-(2-Fluoroethyl)-1H-[1,2,3]-triazol-4-yl)methyl)-5-(2(2,4-difluorophenoxymethyl)-pyrrolidine-1-sulfonyl)isatin] | – |
| 5.5 nM | O=C1C(=O)N(Cc2ccc(F)cc2)c2ccc(S(=O)(=O)N3CCC[C@H]3COc3ccncn3)cc21 [Compound 5, (S)-1-(4-Fluorobenzyl)-5-(2-(pyrimidin-4-yloxymethyl)-pyrrolidine-1-sulfonyl)isatin] | – |
| 10.7 nM | O=C1C(=O)N(Cc2ccc(F)cc2)c2ccc(S(=O)(=O)N3CCC[C@H]3COC3CCOCC3)cc21 [Compound 4, (S)-1-(4-Fluorobenzyl)-5-(2-(tetrahydro-2H-pyran-4-yloxymethyl)-pyrrolidine-1-sulfonyl)isatin] | increase in potency as compared to known benzyl derivative 15 (caspase 3): five-fold |
| 200 nM | O=C1C(=O)N(Cc2ccc(F)cc2)c2ccc(S(=O)(=O)N3CCCC3)cc21 [Compound 16, 1-(4-Fluorobenzyl)-5-(pyrrolidine-1-sulfonyl)isatin, reference compound] | – |
